Counter-ions that a name gives are not always drawn.
Each compound was assayed against T1, recombinant human 5-HT4 receptor (Homo sapiens, UniProt Q13639) (assay: Determination of EC50 values for 5-HT4 receptor (CHO cells, pCRE-Luc reporter)). Conditions: luciferase reporter, 4 hours incubation, read-out: 5-HT4 receptor agonistic binding in-vitro EC50.
T1 construct: expressed in transfected cells
Type: cell-based
Protocol: A stable CHO cell line expressing recombinant human 5-HT4 receptor and pCRE-Luc reporter system was used for cell-based assay. The assay offers a non-radioactive based approach to determine binding of a compound to GPCRs. In this specific assay, the level of intracellular cyclic AMP, which is modulated by activation, or inhibition of the receptor is measured. The recombinant cells harbor luciferase reporter gene under the control of cAMP response element.
The above cells were grown in 96 well clear bottom white plates in Hams F12 medium containing 10% fetal bovine serum (FBS). Prior to the addition of compounds or standard agonist, cells were serum starved overnight. Increasing concentrations of test compounds were added in OptiMEM medium to the cells. The incubation was continued at 37° C. in CO2 incubator for 4 hours. Medium was removed and cells were washed with phosphate buffered saline. The cells were lysed and luciferase activity was measured in a Luminometer. Luminescence units were plotted against the compound concentrations using Graphpad software. EC50 values of the compounds were defined as the concentration required in stimulating the luciferase activity by 50%.

T1 sequence (Q13639 whole entry): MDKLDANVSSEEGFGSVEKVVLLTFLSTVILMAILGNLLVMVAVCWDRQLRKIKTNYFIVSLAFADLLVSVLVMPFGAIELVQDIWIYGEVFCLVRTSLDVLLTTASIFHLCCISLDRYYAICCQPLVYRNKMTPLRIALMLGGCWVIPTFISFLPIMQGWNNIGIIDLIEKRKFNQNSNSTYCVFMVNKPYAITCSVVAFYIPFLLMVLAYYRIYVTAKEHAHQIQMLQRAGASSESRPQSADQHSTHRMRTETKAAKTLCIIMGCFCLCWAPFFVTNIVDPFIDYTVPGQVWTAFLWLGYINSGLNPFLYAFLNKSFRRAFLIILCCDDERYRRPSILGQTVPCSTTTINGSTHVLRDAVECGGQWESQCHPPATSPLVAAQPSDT

| SMILES | EC50 [nM] |
| --- | --- |
| CC(C)N1CCC(NC(=O)c2cccc3cn(C(C)C)nc23)CC1 [Example 19, N—(N-isopropylpiperidine-4-yl)-2-isopropyl-2H-indazole-7-carboxamide fumarate] | 20.1 to 50 |
| CC(C)n1cc2cccc(C(=O)NC3CCN(CC4CC4)CC3)c2n1 [Example 20, N—(N-cyclopropylmethylpiperidine-4-yl)-2-isopropyl-2H-indazole-7-carboxamide fumarate] | 5.1 to 20 |
| COCCCN1CCC(CNC(=O)c2cccc3cn(C(C)C)nc23)CC1 [Example 24, N—[N-(3-methoxypropyl)piperidin-4-ylmethyl]-2-isopropyl-2H-indazole-7-carboxamide fumarate] | ≤ 1 |
| CCn1cc2cccc(C(=O)NCC3CCN(CCCOC)CC3)c2n1 [Example 4, N—[N-(3-methoxypropyl)piperidin-4-ylmethyl]-2-ethyl-2H-indazole-7-carboxamide fumarate] | ≤ 1 |
| CC(C)n1cc2cccc(C(=O)NCC3CCN(CCC(C)(C)O)CC3)c2n1 [Example 29, N—[N-(3-Hydroxy-3-methylbutyl)piperidin-4-ylmethyl]-2-isopropyl-2H-indazole-7-carboxamide] | ≤ 1 |
| CC(C)n1cc2cccc(C(=O)NCC3CCN(CCF)CC3)c2n1 [Example 7, N—[N-(2-fluoroethyl)piperidin-4-ylmethyl]-2-isopropyl-2H-indazole-7-carboxamide] | 5.1 to 20 |
| CC(C)n1cc2cccc(C(=O)NCC3(O)CCN(C4CCOCC4)CC3)c2n1 [Example 27, N—[(N-tetrahydropyran-4-yl)-4-hydroxypiperidin-4-ylmethyl]-2-isopropyl-2H-indazole-7-carboxamide fumarate] | 1.1 to 5 |
| CC(C)n1cc2cccc(C(=O)NCC3(O)CCN(CC4CCOCC4)CC3)c2n1 [Example 26, N—[(N-tetrahydropyran-4-ylmethyl)-4-hydroxypiperidin-4-ylmethyl]-2-isopropyl-2H-indazole-7-carboxamide fumarate] | 1.1 to 5 |
| CC(C)n1cc2cccc(C(=O)NCC3CCN(CC(C)(C)F)CC3)c2n1 [Example 34, N—[N-(2-fluoro-2-methylpropyl)piperidin-4-ylmethyl]-2-isopropyl-2H-indazole-7-carboxamide L(+) Tartarate] | ≤ 1 |
| COCCN1CCC(CNC(=O)c2cccc3cn(C(C)C)nc23)CC1 [Example 25, N—[N-(2-methoxyethyl)piperidin-4-ylmethyl]-2-isopropyl-2H-indazole-7-carboxamide fumarate] | 1.1 to 5 |
| CC(C)n1cc2cccc(-c3nnc(C4CCN(CC5CCOCC5)CC4)o3)c2n1 [Example 38, 2-Isopropyl-7-{5-[1-(tetrahydropyran-4-ylmethyl)piperidin-4-yl]-[1,3,4]oxadiazol-2-yl}-2H-indazole fumarate] | 5.1 to 20 |
| CC(C)n1cc2cccc(C(=O)NCC3(F)CCN(CC4CCOCC4)CC3)c2n1 [Example 22, N—[(N-tetrahydropyran-4-ylmethyl)-4-fluoropiperidin-4-ylmethyl]-2-isopropyl-2H-indazole-7-carboxamide] | 1.1 to 5 |
| CC(C)n1cc2cccc(C(=O)NC3CCN(CC4CCC4)CC3)c2n1 [Example 21, N—(N-cyclobutylmethylpiperidine-4-yl)-2-isopropyl-2H-indazole-7-carboxamide fumarate] | 5.1 to 20 |
| CC(C)n1cc2cccc(C(=O)NCC3CCN(CC4(O)CCOCC4)CC3)c2n1 [Example 17, N—[N-(4-hydroxytetrahydropyran-4-ylmethyl)piperidin-4-ylmethyl]-2-isopropyl-2H-indazole-7-carboxamide fumarate] | ≤ 1 |
| CC(C)N1CC2C(CNC(=O)c3cccc4cn(C(C)C)nc34)C2C1 (centres unmarked) [Example 16, N—(N-isopropyl-3-azabicyclo[3.1.0]hexane-6-ylmethyl)-2-isopropyl-2H-indazole-7-carboxamide fumarate] | 1.1 to 5 |
| COCCCN1CCC(O)(CNC(=O)c2cccc3cn(C(C)C)nc23)CC1 [Example 28, N—[N-(3-methoxypropyl)-4-hydroxypiperidin-4-ylmethyl]-2-isopropyl-2H-indazole-7-carboxamide fumarate] | 1.1 to 5 |
| CC(C)n1cc2cccc(C(=O)NCC3(F)CCN(CC(C)(C)O)CC3)c2n1 [Example 35, N—[N-(2-hydroxy-2-methylpropyl)-4-fluoropiperidin-4-ylmethyl]-2-isopropyl-2H-indazole-7-carboxamide L(+) Tartarate] | 5.1 to 20 |
| CC(C)n1cc2cccc(C(=O)NCC3C4CN(C5CCOCC5)CC34)c2n1 (centres unmarked) [Example 12, N—[N-(tetrahydropyran-4-yl)-3-azabicyclo[3.1.0]hexane-6-ylmethyl]-2-isopropyl-2H-indazole-7-carboxamide] | 1.1 to 5 |

| SMILES | EC50 [nM] |
| --- | --- |
| COC(C)(C)CN1CCC(CNC(=O)c2cccc3cn(C(C)C)nc23)CC1 [Example 33, N—[N-(2-Methoxy-2-methylpropyl)piperidin-4-ylmethyl]-2-isopropyl-2H-indazole-7-carboxamide] | ≤ 1 |
| CCn1cc2cccc(C(=O)NCC3C4CN(CCCOC)CC34)c2n1 (centres unmarked) [Example 5, N—[N-(3-methoxypropyl)-3-azabicyclo[3.1.0]hexane-6-ylmethyl]-2-ethyl-2H-indazole-7-carboxamide oxalate] | 1.1 to 5 |
| CC(C)n1cc2cccc(C(=O)NCC3CN(CC4CCOCC4)CCO3)c2n1 (centres unmarked) [Example 9, N—[(N-tetrahydropyran-4-ylmethyl)morpholine-2-ylmethyl]-2-isopropyl-2H-indazole-7-carboxamide] | 5.1 to 20 |
| CC(C)n1cc2cccc(-c3nnc(C4CCN(C5CCOCC5)CC4)o3)c2n1 [Example 39, 2-Isopropyl-7-{5-[1-(tetrahydropyran-4-yl)piperidin-4-yl]-[1,3,4]oxadiazol-2-yl}-2H-indazole fumarate] | 1.1 to 5 |
| CC(C)n1cc2cccc(C(=O)NCC3C4CN(CC5CCOCC5)CC34)c2n1 (centres unmarked) [Example 10, N—[N-(tetrahydropyran-4-ylmethyl)-3-azabicyclo[3.1.0]hexane-6-ylmethyl]-2-isopropyl-2H-indazole-7-carboxamide] | 1.1 to 5 |
| CC(C)n1cc2cccc(C(=O)NCC3CN(Cc4ccccc4)CCO3)c2n1 (centres unmarked) [Example 8, N—[N-benzylmorpholin-2-ylmethyl]-2-isopropyl-2H-indazole-7-carboxamide fumarate] | 20.1 to 50 |
| CCn1cc2cccc(C(=O)NCC3C4CN(C5CCOCC5)CC34)c2n1 (centres unmarked) [Example 18, N—[N-(tetrahydropyran-4-yl)-3-azabicyclo[3.1.0]hexane-6-ylmethyl]-2-ethyl-2H-indazole-7-carboxamide oxalate] | 5.1 to 20 |
| CC(C)n1cc2cccc(C(=O)NCC3C4CN(CC(C)(C)O)CC34)c2n1 (stereo not drawn) [Example 36, N—[N-(2-hydroxy-2-methylpropyl)-3-azabicyclo[3.1.0]hexane-6-ylmethyl]-2-isopropyl-2H-indazole-7-carboxamide L(+) Tartarate] | 5.1 to 20 |
| CC(C)N1CCC(CNC(=O)c2cccc3cn(C(C)C)nc23)CC1 [Example 13, N—(N-isopropylpiperidin-4-ylmethyl)-2-isopropyl-2H-indazole-7-carboxamide fumarate] | ≤ 1 |
| CC(C)n1cc2cccc(C(=O)NCC3CCN(CC4(O)CCCC4)CC3)c2n1 [Example 11, N—[N-(1-hydroxycyclopentylmethyl)piperidin-4-ylmethyl]-2-isopropyl-2H-indazole-7-carboxamide L(+) tartarate] | ≤ 1 |
| CC(C)n1cc2cccc(C(=O)NCC3CCN(CC4CCOC4)CC3)c2n1 (centres unmarked) [Example 23, N—[(N-tetrahydrofuran-3-ylmethyl)piperidin-4-ylmethyl]-2-isopropyl-2H-indazole-7-carboxamide] | ≤ 1 |
| CC(C)n1cc2cccc(C(=O)NCC3(F)CCN(CC4(O)CCOCC4)CC3)c2n1 [Example 31, N—[N-(4-hydroxytetrahydropyran-4-ylmethyl)-4-fluoropiperidin-4-ylmethyl]-2-isopropyl-2H-indazole-7-carboxamide L(+) Tartarate] | 1.1 to 5 |
| CC(C)n1cc2cccc(C(=O)NCC3(O)CCN(CC(C)(C)O)CC3)c2n1 [Example 30, N—[N-(2-hydroxy-2-methylpropyl)-4-hydroxypiperidin-4-ylmethyl]-2-isopropyl-2H-indazole-7-carboxamide oxalate] | 1.1 to 5 |
| CC(C)n1cc2cccc(C(=O)NCC3CCN(C4CCCCC4)CC3)c2n1 [Example 15, N—(N-cyclohexylpiperidin-4-ylmethyl)-2-isopropyl-2H-indazole-7-carboxamide fumarate] | ≤ 1 |
| CC(C)n1cc2cccc(C(=O)NCC3CCN(C4CCC4)CC3)c2n1 [Example 14, N—(N-cyclobutylpiperidin-4-ylmethyl)-2-isopropyl-2H-indazole-7-carboxamide fumarate] | ≤ 1 |
| COCCCN1CCC(c2nnc(-c3cccc4cn(C(C)C)nc34)o2)CC1 [Example 37, 2-isopropyl-7-{5-[1-(3-methoxypropyl)piperidin-4-yl]-[1,3,4]oxadiazol-2-yl)}-2H-indazole fumarate] | 5.1 to 20 |
| CC(C)n1cc2cccc(C(=O)NCC3CCN(CC(C)(C)CO)CC3)c2n1 [Example 6, N—[N-(3-hydroxy-2,2-dimethylpropyl)piperidin-4-ylmethyl]-2-isopropyl-2H-indazole-7-carboxamide L(+) Tartarate] | ≤ 1 |

From US9951045B2, “Indazole compounds as 5-HT4 receptor agonists” (SUVEN LIFE SCIENCES LIMITED, priority 2013, dated 2018)
